According to paper PMC9782539, “Synthesis, Characterization and Biological Evaluation of Benzothiazole–Isoquinoline Derivative” (Molecules, 2022):

Experiments:
MAO = MAO inhibitory activity (Holts method, rat liver mitochondrial enzyme); type: biochemical
Description: (§1) Male SD rats were sacrificed by decapitation, operated on ice, their livers were removed, and the liver surface was washed with precooled phosphate buffer. The liver was cut into pieces, and after washing (using PBS), 20 mL of 0.3 M sucrose buffer was added for homogenization. After fully homogenized, it was balanced by a tray balance. Low–temperature differential centrifugation was performed, and the obtained SD rat liver mitochondrial concentrate was the experimental monoamine oxidase stock solution, and was stored in a −80 °C refrigerator.
(§2) Added 25 µL of enzyme dilution solution and 25 µL of test derivatives (control group plus rasagiline, blank group plus 10% DMSO) to 96–well plate, incubated at 37 °C for 1 h, then 120 µL of substrate was added, 80 µL of chromogenic solution was added, incubated at 37 °C for 30 min, and its absorbance measured at 490 nm. In addition, in order to exclude the influence of protein, a protein control group was established, only the enzyme dilution was added, and the rest were replaced with PBS, and the absorbance value was detected at a wavelength of 490 nm. The inhibition rate of each concentration was substituted into the calculation software GraphPad Prism 8 to calculate the IC50 value.

MAO–A = target: T1, MAO–A (Rattus norvegicus, UniProt P21396); assay: MAO–A inhibitory activity (enzyme pre-incubated with pargyline); type: biochemical
T1 construct: the obtained SD rat liver mitochondrial concentrate was the experimental monoamine oxidase stock solution; from tissue; host or cells: male SD rat liver mitochondria
T1 sequence (P21396 1-526): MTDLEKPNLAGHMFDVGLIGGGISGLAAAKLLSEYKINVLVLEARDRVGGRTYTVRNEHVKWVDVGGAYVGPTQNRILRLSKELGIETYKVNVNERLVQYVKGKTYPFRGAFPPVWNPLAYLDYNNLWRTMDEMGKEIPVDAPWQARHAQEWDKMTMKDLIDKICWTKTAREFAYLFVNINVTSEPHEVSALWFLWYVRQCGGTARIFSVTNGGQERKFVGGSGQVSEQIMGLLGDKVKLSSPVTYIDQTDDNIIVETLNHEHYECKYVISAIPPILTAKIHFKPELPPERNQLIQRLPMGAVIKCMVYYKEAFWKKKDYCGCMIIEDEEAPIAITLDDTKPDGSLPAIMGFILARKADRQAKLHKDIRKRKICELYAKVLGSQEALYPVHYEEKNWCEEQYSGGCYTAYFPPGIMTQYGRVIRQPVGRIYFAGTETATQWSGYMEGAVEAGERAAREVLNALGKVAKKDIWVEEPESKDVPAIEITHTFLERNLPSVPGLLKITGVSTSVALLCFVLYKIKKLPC
Description: as §1, §2
(§3) The inhibition rate of each concentration was substituted into the calculation software GraphPad Prism 8 to calculate the IC50 value.

MAO–B = target: T2, MAO–B (Rattus norvegicus, UniProt P19643); assay: MAO–B inhibitory activity (enzyme pre-incubated with chlorgiline); type: biochemical
T2 construct: the obtained SD rat liver mitochondrial concentrate was the experimental monoamine oxidase stock solution; from tissue; host or cells: male SD rat liver mitochondria
T2 sequence (P19643 1-520): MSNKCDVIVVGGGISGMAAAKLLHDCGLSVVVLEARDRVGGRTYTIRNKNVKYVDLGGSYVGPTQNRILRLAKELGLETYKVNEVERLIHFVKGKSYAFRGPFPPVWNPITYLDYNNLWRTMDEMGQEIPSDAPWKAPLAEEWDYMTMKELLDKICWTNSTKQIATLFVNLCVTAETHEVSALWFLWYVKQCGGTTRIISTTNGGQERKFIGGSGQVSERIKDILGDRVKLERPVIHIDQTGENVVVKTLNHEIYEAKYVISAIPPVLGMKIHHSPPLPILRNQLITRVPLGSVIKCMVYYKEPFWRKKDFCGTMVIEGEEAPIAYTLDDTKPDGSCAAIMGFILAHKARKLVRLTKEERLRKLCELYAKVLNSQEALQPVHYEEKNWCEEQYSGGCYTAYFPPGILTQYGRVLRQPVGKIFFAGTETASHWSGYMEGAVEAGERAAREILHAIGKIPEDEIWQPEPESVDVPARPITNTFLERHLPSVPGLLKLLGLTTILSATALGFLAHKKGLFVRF
Description: as §1, §2, §3

AChE = AChE (Homo sapiens, UniProt P22303); assay: biochemical; type: biochemical
Description: (§4) Each concentration was tested three times in parallel, and 96 empty plates were taken, and 20 µL of the test sample or positive drug (10% DMSO was added to the blank control), 40 µL of AChE or BuChE (0.2 U/mL) and 100 µL of DTNB (0.001 mol/L) were added in turn, mixed well and incubated in a constant temperature water bath at 37 °C for 15 min.

BuChE = BuChE (Homo sapiens, UniProt P06276); assay: biochemical; type: biochemical
Description: as §4

ICR male mice = assay: Forced swimming test (FST); type: in vivo; conditions: i.p., 30 mg/kg; for Duration of Immobility: 30 min after administration, mean ± SEM (n = 8); for DID (%) percentage decrease in immobility duration: vs control
Description: Pharmacological experiments of antidepressant activity used FST in mice, fluoxetine hydrochloride was used as a positive control, and the vehicle solvent PFG–400 was used as a blank control. The experiment used ICR male mice (20 ± 2 g). Six benzothiazole–quinoline derivatives were dissolved in polyethylene glycol–400, and 30 min after administration (i.p., 30 mg/kg), the mice were each placed in a glass cylinder, recording the time of immobility. Duration of immobility outcomes is expressed as mean ± SEM. The t-test was used to make comparisons between groups.

Cytotoxicity, MTT method = type: cell-based; conditions: mouse, L929 cells, 0–100 μM, read-out: cell viability (MTT)
Description: L929 (Shanghai Cell Bank, Chinese Academy of Sciences) cells were cultured in 10% fetal bovine serum: penicillin–streptomycin solution: MEM mixed medium with serum–free medium (10:1:90), and subcultured in a 5% carbon dioxide cell incubator at 37 °C, and the medium changed every other day.
In this experiment, L929 cells in the logarithmic growth phase were selected, and the cell density was adjusted to 2 × 10^4 cells per well. The cells were seeded in 96–well plates, and the 96–well plates seeded with cells were cultured in a 37 °C 5% carbon dioxide cell incubator. After 24 h, different concentrations of the test compound medium (6.5, 12.5, 25, 50, 100 μM) were added, and the blank group was added with drug–free medium, shaken gently, and placed at 37 °C 5%. The cells were cultured in a carbon dioxide cell incubator for 24 h, and each concentration was replicated 6 times. After 24 h, 20 μL of […] MTT solution (prepared in PBS with pH = 7.6) was added in the dark, and cultured in the cell incubator for another 4 h. After 4 h, the 96–well plate was taken out and the original medium was discarded. Added 160 μL DMSO, put it on a shaker and mixed well for about 10 min, used a microplate reader to measure its absorbance at 490 nm, recorded the results and analyzed.

Chain of BuChE (P06276 29-602): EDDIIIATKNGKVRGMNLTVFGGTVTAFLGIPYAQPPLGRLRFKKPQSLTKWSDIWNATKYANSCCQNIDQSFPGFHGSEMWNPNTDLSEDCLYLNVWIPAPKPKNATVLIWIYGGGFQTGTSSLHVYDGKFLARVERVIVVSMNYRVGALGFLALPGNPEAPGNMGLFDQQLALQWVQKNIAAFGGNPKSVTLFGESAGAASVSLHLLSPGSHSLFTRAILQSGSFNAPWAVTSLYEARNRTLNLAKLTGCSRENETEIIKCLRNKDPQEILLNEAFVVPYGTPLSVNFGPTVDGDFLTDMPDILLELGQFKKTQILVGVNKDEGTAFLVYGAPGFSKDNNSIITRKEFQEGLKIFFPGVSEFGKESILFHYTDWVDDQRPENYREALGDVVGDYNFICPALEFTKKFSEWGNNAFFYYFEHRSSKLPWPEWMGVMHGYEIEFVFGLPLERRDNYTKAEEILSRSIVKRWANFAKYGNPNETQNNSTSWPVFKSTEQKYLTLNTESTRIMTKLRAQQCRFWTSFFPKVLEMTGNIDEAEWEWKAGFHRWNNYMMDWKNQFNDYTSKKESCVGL
Chain of AChE (P22303 32-614): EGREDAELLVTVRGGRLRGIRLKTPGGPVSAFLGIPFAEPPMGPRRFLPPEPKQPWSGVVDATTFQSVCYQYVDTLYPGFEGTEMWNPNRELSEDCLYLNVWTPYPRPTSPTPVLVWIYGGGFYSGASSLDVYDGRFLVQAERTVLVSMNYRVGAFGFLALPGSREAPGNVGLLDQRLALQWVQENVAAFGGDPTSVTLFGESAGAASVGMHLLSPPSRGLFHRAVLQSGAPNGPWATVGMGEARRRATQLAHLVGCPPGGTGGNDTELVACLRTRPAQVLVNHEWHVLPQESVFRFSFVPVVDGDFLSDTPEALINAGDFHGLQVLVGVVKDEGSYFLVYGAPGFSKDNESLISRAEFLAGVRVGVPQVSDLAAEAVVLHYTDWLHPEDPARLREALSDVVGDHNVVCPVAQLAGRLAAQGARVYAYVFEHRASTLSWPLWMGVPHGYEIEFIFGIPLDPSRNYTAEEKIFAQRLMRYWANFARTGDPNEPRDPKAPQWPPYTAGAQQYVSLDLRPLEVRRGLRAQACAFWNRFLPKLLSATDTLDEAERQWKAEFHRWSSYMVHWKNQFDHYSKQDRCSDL

## O=C(CN1CCc2ccccc2[C@H]1c1ccccc1)Nc1nc2c(Br)cccc2s1 [Compound 4d, (R)–N–(4–bromobenzo[d]thiazol–2–yl)–2–(1–phenyl–3,4–dihydroisoquinolin–2(1H)–yl)acetamide]
MAO
  IC50: 64.8 ± 4.2 µM
  Inhibition Rate of MAO (%): 43.37%
MAO–A
  Inhibition Rate (%) MAO–A: 18.05%
MAO–B
  IC50: 3.26 ± 2.78 µM
  Inhibition Rate (%) MAO–B: 46.00%
AChE
  IC50: > 150 µM
  Inhibition Rate (%) AChE: 0.55%
BuChE
  IC50: 14.6 ± 5.81 µM
  Inhibition Rate (%) BuChE: 77.76%
ICR male mice
  Duration of Immobility: 62.3 ± 14.0 s
  DID (%) percentage decrease in immobility duration: 65.06%
Cytotoxicity, MTT method
  viability at 24 h: > 90%

## COc1ccc2nc(NC(=O)CN3CCc4ccccc4[C@H]3c3ccccc3)sc2c1 [Compound 4l, (R)–N–(6–methoxybenzo[d]thiazol–2–yl)–2–(1–phenyl–3,4–dihydroisoquinolin–2(1H)–yl)acetamide]
MAO
  IC50: 76.3 ± 2.94 µM
  Inhibition Rate of MAO (%): 11.34%
AChE
  IC50: > 150 µM
  Inhibition Rate (%) AChE: 3.31%
BuChE
  IC50: 3.86 ± 0.82 µM
  Inhibition Rate (%) BuChE: 41.92%

## O=C(CN1CCc2ccccc2[C@H]1c1ccccc1)Nc1nc2c(Cl)cccc2s1 [Compound 4a, (R)–N–(4–chlorobenzo[d]thiazol–2–yl)–2–(1–phenyl–3,4–dihydroisoquinolin–2(1H)–yl)acetamide]
MAO
  IC50: > 150 µM
  Inhibition Rate of MAO (%): 14.93%
AChE
  IC50: > 150 µM
  Inhibition Rate (%) AChE: 6.08%
BuChE
  IC50: > 150 µM
  Inhibition Rate (%) BuChE: 38.08%

## O=C(CN1CCc2ccccc2[C@H]1c1ccccc1)Nc1nc2ccc(F)cc2s1 [Compound 4m, (R)–N–(6–fluorobenzo[d]thiazol–2–yl)–2–(1–phenyl–3,4–dihydroisoquinolin–2(1H)–yl)acetamide]
MAO
  IC50: > 150 µM
  Inhibition Rate of MAO (%): 9.76%
AChE
  IC50: > 150 µM
  Inhibition Rate (%) AChE: 2.76%
BuChE
  IC50: 50.3 ± 1.68 µM
  Inhibition Rate (%) BuChE: 22.33%

## C#CCN(C)Cc1ccccc1 [Pargyline, reference compound]
MAO–B
  Inhibition Rate (%) MAO–B: 93.47%

## O=C(CN1CCc2ccccc2[C@H]1c1ccccc1)Nc1nc2cc(Br)ccc2s1 [Compound 4e, (R)–N–(5–bromobenzo[d]thiazol–2–yl)–2–(1–phenyl–3,4–dihydroisoquinolin–2(1H)–yl)acetamide]
MAO
  IC50: 128.1 ± 1.27 µM
  Inhibition Rate of MAO (%): 9.29%
AChE
  IC50: > 150 µM
  Inhibition Rate (%) AChE: 4.97%
BuChE
  IC50: 18.3 ± 2.68 µM
  Inhibition Rate (%) BuChE: 68.80%

## O=C(CN1CCc2ccccc2[C@H]1c1ccccc1)Nc1nc2ccc([N+](=O)[O-])cc2s1 [Compound 4n, (R)–N–(6–nitrobenzo[d]thiazol–2–yl)–2–(1–phenyl–3,4–dihydroisoquinolin–2(1H)–yl)acetamide]
MAO
  IC50: > 150 µM
  Inhibition Rate of MAO (%): 12.51%
AChE
  IC50: > 150 µM
  Inhibition Rate (%) AChE: 2.76%
BuChE
  IC50: 12.3 ± 3.76 µM
  Inhibition Rate (%) BuChE: 20.31%

## O=C(CN1CCc2ccccc2[C@H]1c1ccccc1)Nc1nc2c(Cl)cc(Cl)cc2s1 [Compound 4o, (R)–N–(4,6–dichlorobenzo[d]thiazol–2–yl)–2–(1–phenyl–3,4–dihydroisoquinolin–2(1H)–yl)acetamide]
MAO
  IC50: 67.8 ± 1.26 µM
  Inhibition Rate of MAO (%): 10.19%
AChE
  IC50: > 150 µM
  Inhibition Rate (%) AChE: 3.87%
BuChE
  IC50: 21.8 ± 2.85 µM
  Inhibition Rate (%) BuChE: 52.16%

## CNCCC(Oc1ccc(C(F)(F)F)cc1)c1ccccc1 (stereo not shown) [Fluoxetine, reference compound]
ICR male mice
  Duration of Immobility: 31.7 ± 7.7 s
  DID (%) percentage decrease in immobility duration: 82.20%
ICR male mice; listed as fluoxetine
  DID (%) percentage decrease in immobility duration: 82.2%

## COc1ccc2sc(NC(=O)CN3CCc4ccccc4[C@H]3c3ccccc3)nc2c1 [Compound 4k, (R)–N–(5–methoxybenzo[d]thiazol–2–yl)–2–(1–phenyl–3,4–dihydroisoquinolin–2(1H)–yl)acetamide]
MAO
  IC50: 65.5 ± 3.51 µM
  Inhibition Rate of MAO (%): 17.75%
AChE
  IC50: > 150 µM
  Inhibition Rate (%) AChE: 3.31%
BuChE
  IC50: 10.2 ± 2.91 µM
  Inhibition Rate (%) BuChE: 57.92%

## COc1cccc2sc(NC(=O)CN3CCc4ccccc4[C@H]3c3ccccc3)nc12 [Compound 4j, (R)–N–(4–methoxybenzo[d]thiazol–2–yl)–2–(1–phenyl–3,4–dihydroisoquinolin–2(1H)–yl)acetamide]
MAO
  IC50: > 150 µM
  Inhibition Rate of MAO (%): 5.70%
AChE
  IC50: > 150 µM
  Inhibition Rate (%) AChE: 12.71%
BuChE
  IC50: > 150 µM
  Inhibition Rate (%) BuChE: 51.52%

## O=C(CN1CCc2ccccc2[C@H]1c1ccccc1)Nc1nc2c(Br)cc(Br)cc2s1 [Compound 4p, (R)–N–(4,6–dibromobenzo[d]thiazol–2–yl)–2–(1–phenyl–3,4–dihydroisoquinolin–2(1H)–yl)acetamide]
MAO
  IC50: 59.3 ± 3.22 µM
  Inhibition Rate of MAO (%): 19.80%
AChE
  IC50: > 150 µM
  Inhibition Rate (%) AChE: 6.63%
BuChE
  IC50: 27.1 ± 1.73 µM
  Inhibition Rate (%) BuChE: 43.84%

## Cc1ccc2sc(NC(=O)CN3CCc4ccccc4[C@H]3c3ccccc3)nc2c1 [Compound 4h, (R)–N–(5–methylbenzo[d]thiazol–2–yl)–2–(1–phenyl–3,4–dihydroisoquinolin–2(1H)–yl)acetamide]
MAO
  IC50: 76.4 ± 2.58 µM
  Inhibition Rate of MAO (%): 16.72%
AChE
  IC50: > 150 µM
  Inhibition Rate (%) AChE: 3.31%
BuChE
  IC50: 11.5 ± 3.22 µM
  Inhibition Rate (%) BuChE: 37.44%
